Patent US8022178B2, “Modified self-assembling peptides” (Massachusetts Institute of Technology, priority 2006, dated 2011)
“Also recorded” adds a separate entry of the source.

Key:
[1] = system: chick Chorioallantoic Membrane; assay: Chorioallantoic Membrane (CAM) assay of angiogenesis; assay type: in vivo, chicken; settings: hydrogel placed Day 8, histology Day 12, FIG. 30
Description: In vivo study of angiogenesis was performed using Chorioallantoic Membrane (CAM) assay. At Day 8 of fertilized chicken egg incubation, hydrogels of 10 mm diameter with 1 mm thickness were transferred to chick Chorioallantoic Membrane. The hydrogels were selected from Table 19 and gels were formed before the transfer. On Day 12, CAMs were collected for histology. The angiogenesis inside and below the hydrogel were evaluated by histological cross section.

[2] = system: HUVEC (human umbilical vein endothelial cells); assay: HUVEC DNA amount in the well after three days culture; assay type: cell-based; settings: compared to RAD, FIG. 25
Description: (§1) The peptide solutions shown in Table 19 were loaded in the culture inserts (10 mm diameter, Millicell-CM, Millipore) and gels were formed using cell culture medium (EGM-2-MV, Camblex). Collagen-1 and Matrigel were used as control matrices. HUVEC (human umbilical vein endothelial cells) were plated at 8×10^4 cells on the inserts and cultured up to 7 Days.
The amount of DNA in the well after three days culture was evaluated in selected hydrogels of Table 19. The DNA amount is proportional to the number of the cells.

[3] = system: HUVEC (human umbilical vein endothelial cells); assay: Endothelial cell migration from beads to hydrogels; assay type: cell-based; settings: Day 2; compared to RAD; FIGS. 26-27
Description: Endothelial cell migration effect on the hydrogels was evaluated. The endothelial cell migration is important when the vessel has in-growth into the matrix. HUVEC (human umbilical vein endothelial cells) were seeded on Collagen coated Dextran beads (Cytodex3, microcarrier beads, Sigma), then transferred to different hydrogels which selected from Table 19.
FIGS. 26A-26F show the fluorescence microscopy image of beads on the peptide matrix at Day 1 and Day 2 after placing the beads. […] The white bar represents 100 um. On the Day 1, most of the cells stayed on the beads. On the Day 2, the cells were well migrated from the beads to Collagen, PRGmx and KLTmx gel compared to RAD.
The cells are counted in fluorescence microscopy image. The above observation were also confirmed in the graph.

[4] = system: HUVEC (human umbilical vein endothelial cells); assay: HUVEC cultured 2-dimensionally on hydrogels: cell attachment and morphology; assay type: cell-based
Description: The effect of functional modified peptide matrix to HUVEC (human umbilical vein endothelial cells) was evaluated by culturing cells 2-dimensionally on the gel.
as §1

bFGF = bFGF (Homo sapiens, UniProt P09038); assay: bFGF retention in peptide matrix (ELISA); settings: bFGF 175 ng/insert loaded after gelation; during PBS washing and culturing; FIG. 19
Description: The effect of protein retention and delivery using the self-assembling peptide were studied (Table 11). bFGF was used as a model protein. The retention of bFGF in different peptide matrix in different charge condition was measured by ELISA after washing by PBS. After washing out unbound bFGF, the effect of protein retention to self-assembling peptide matrix were evaluated the using cell culturing of HUVEC (human umbilical vein endothelial cells).
The peptide solutions provided in Table 12 were loaded in the culture inserts (10 mm diameter, Millicell-CM, Millipore) and gels were formed using PBS. After gelation, bFGF solution in PBS was added inside and outside and plated for overnight. bFGF was loaded at 175 ng/insert. After loading bFGF, the PBS inside and outside the inserts were exchanged three times (2 hours, 9 hours and 12 hours) to remove unbound bFGF (Washing). After the washing, the PBS was exchanged to the cell culture medium (EGM-2-MV, Camblex) without attached growth factor (bFGF, VEGF and EGF) and placed more than a day (such that the fluid contained in the gel is exchanged from PBS to cell culture medium), then HUVEC (human umbilical vein endothelial cells) were plated at 7.5×10^4 cells on the inserts and cultured for three days.
Cell culturing using cell culture medium (EGM-2-MV) was used without attached growth factor on peptide matrix as negative control. Cell culturing using cell culture medium (EGM-2-MV) was used with attached growth factor on peptide matrix without loading growth factor as positive control. The bFGF concentration in washing buffer (PBS) and cell culture medium (EGM-2-MV) was measured using ELISA. The washing buffer and cell culture medium were exchanged at each measurement period (2 hours, 9 hours and 12 hours for washing, and at the cell seeding (D0), Day 1 (D 1), Day 2 (D2) and Day 3 (D3)). Growth factor retention rate was calculated by accumulating the amount of measured bFGF.

[5] = neutral pH range (Caplan 2002a); cited from earlier work
[6] = pI and charge of the self-assembling peptide; assay type: physicochemical
Description: A comparison of the pH dependent property of 1% Ac(RADA)4GGFHRRIKA CONH2 (SEQ ID NO. 6) solution (Code: FHR), self assembling peptide sequence was compared with the heparin-binding motif. FIG. 12 depicts the isoelectric plot and corresponding rheological data when 0.1 N NaOH solution is added to FHR solution to adjust pH. The net charge of the peptide molecule is kept ≧2 when pH<10. Until at point of pH 5.7, the solution keeps viscous state. This movement of pH point where the peptide solution become gel is controlled by the charge induced by the additional motif to the self-assembling peptide. The induced charge prevents the peptide to aggregate to form the gel. Thus, the cell and the peptide solution can be mixed near neutral pH. After complete mixing, the gel formation can be made by adding salt containing solution (e.g., a solution containing a gellation agent or an iso-osmotic solute).
FIG. 18 depicts the isoelectric plot and Rheological data of PFS 1% solution when 0.1 N NaOH solution is added. 1% Ac(RADA)4GGSKPPGTSS-CONH2 solution (Code: SKP, peptide sequence: SEQ ID NO. 7) is a hydrogel composed of peptides with a self-assembling sequence and positively-charged functional motif. Although the pI value of the peptide is 9.74 and it keeps positive charge at near pH 7 range, the gel is formed at the point of pH 4.5. This is because the charge of the molecule around pH 7 range is +1 and smaller than the charge of Ac(RADA)4GGFHRRIKA CONH2 (FHR) (bigger than 3). The charge of the whole peptide should be larger than 2 when the cell is mixed. This pH should be somewhere in 6-8 in order to minimize the damage to the cells. As this sequence is heparin-binding motif, the fiber can attach to the heparin molecule which is abundant at cell surface. This heparin-binding motif provides a specific anchor to the cell. As described in Example 1, this binding synergistically works with the other binding motif (e.g., RGD) to induce biological stimuli for cell proliferation and differentiation. This effect is not limited to the sequences previously describe, but the other motifs, including -XBBXBX- and -XBBBXXBX- sequences. […]

[7] = system: Mouse preosteoblast cell line (MC3T3-E1); assay: MC3T3-E1 cell proliferation on hydrogels (DNA content, PicoGreen); assay type: cell-based; settings: pre-osteoblast; when it becomes hydrogel; no data shown
Description: Mouse preosteoblast cell line (MC3T3-E1) was used to compare the proliferation and differentiation effects of the motifs with RAD16-1 and Collagen-I hydrogels as controls. The proliferation was measured by DNA contents and the differentiation effects were evaluated using Alkaline phosphatase (ALP) activity and secreted Osteocalcin. Alkaline phosphatase is known to be differentiation marker of osteoblast in earlier stage. Secreted Osteocalcin is known to be differentiation marker of osteoblast in later stage and its activity is correlated with the bone mineralization.
1% RAD16-I solution [self-assembling peptide solution] was obtained as RAD16-I (Puramatrix™, 3DM Inc./BD Bioscience). The functionalized peptides of Table 2 were dissolved in water at final concentration of 1% (v/w). The functionalized peptide solutions were then mixed with 1% RAD16-I solution at a ratio of 1:1 (Table 4). Each peptide solution was loaded in the Culture plate inserts (10 mm diameter, Millicell-CM, Millipore). […]
Cell proliferation was evaluated using DNA contents in the hydrogel using PicoGreen dsDNA Kits (Molecular Probes). ALP activity was quantitatively measured from cell lysis using Alkaline Phosphatase Fluorescence Assay Kit (Sigma). Osteocalcin was measured from cell culture medium using Mouse Osteocalcin EIA Kit (Biomedical Technologies Inc.).

[8] = system: HUVEC (human umbilical vein endothelial cells); assay: HUVEC cell attachment on hydrogels based on various self-assembling sequence; settings: HUVEC cultured for three days
Description: Cell attachment and viability of the hydrogels were evaluated using HUVEC (human umbilical vein endothelial cells). The peptide solutions shown in Table 22 were loaded in the culture inserts (10 mm diameter, Millicell-CM, Millipore) and gels were formed using cell culture medium (EGM-2-MV, Camblex). HUVEC were plated at 8×10^4 cells on the inserts and cultured for three days.
This implies that functionalization of the self-assembling peptide is useful regardless of the basic repetitive sequence, while the properties of hydrogel can be controlled by altering basic repetitive sequence in amino acid and length.

[9] = neutral pH range (Caplan 2002a); cited from earlier work; remark: listed apart in the source

bFGF, sequence (P09038 143-288, species assumed): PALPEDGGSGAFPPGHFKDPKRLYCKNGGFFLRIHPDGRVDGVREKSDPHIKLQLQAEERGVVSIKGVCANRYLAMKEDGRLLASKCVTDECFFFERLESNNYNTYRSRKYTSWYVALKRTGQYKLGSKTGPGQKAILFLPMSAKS

Row | Substance | angiogenesis inside and below the hydrogel [1] | DNA amount in the well [2] | cell migration from the beads to the hydrogel [3] | Cell attachment ([4]; HUVEC cultured on hydrogels) | cell attachment compared to RAD ([4]; HUVEC on hydrogels for two days, confocal, FIGS. 24A-24M) | bFGF (growth factor) retention rate (bFGF) | phase of peptide solution in neutral pH range [5] | charge [6] | pI [6] | cell proliferation on hydrogel [7] | Cell attachment [8] | charge in neutral pH range [9]
1 | COL: Collagen-1 gel (0.25%); Collagen I gel from rat tail (BD Bioscience), control matrix | no angiogenesis both inside and below the hydrogel | statically higher | well migrated | ++++ (++++: near confluence(>70%)) | higher cell attachment |  |  |  |  |  |  | 
2 | Ac(FKFQ)3-CONH2 (Ac-FKFQFKFQFKFQ-NH2) [FKF = 1% solution; FKF-2P = 2% solution, reference compound] |  |  |  |  |  | high in the order of KFQ-2P, FHR-2P, RAD-2P then DGR-2P | stays solution phase; also recorded: stays in solution | positively charged | 10.30, | supports cell proliferation | ++ (++: 20-50%) | positively charged
